Results as given in patent US10577349B2 (Sanford Burnham Prebys Medical Discovery Institute, priority 2015, dated 2020).
In brackets after ≈: the same amount, converted by molar mass. Several values for one entry are separate records, joined by “and”; a condition that tells them apart may be missing. Equal values may be shown once. Read-outs that look alike come from different tables or passages of the source.

Assays:
[1] = molecular target: HCV cap-independent translation; experiment: In vitro translation assay, FF-HCV-Ren construct, cap-independent (Ren luciferase); format: biochemical, rabbit reticulocyte lysates
Summary of the method: (§1)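 Rabbit reticulocyte lysate with -Met/-Leu translation mixes pre-incubated with compound 1 h at room temperature, then 0.1 μg bicistronic RNA added and translated 2 h at 30° C. Dual-Glo read-out: FF signal reports cap-dependent, Ren signal IRES-driven translation. Counter assay adds compound after translation to flag luciferase interference.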

[2] = Hepatic Microsome Stability Mouse; format: in vitro ADME
[3] = PAMPA Permeability; format: in vitro ADME
[4] = Aqueous Solubility in 1xPBS, pH 7.4; format: physicochemical; conditions: pH 7.4, aqueous buffer
[5] = molecular target: EmCV Cap-independent translation; experiment: In vitro translation assay, FF-EmCV-Ren construct, cap-independent (Ren luciferase); format: biochemical, rabbit reticulocyte lysates
Summary of the method: as §1

[6] = system: E1A/RAS-transformed 4E-BP DKO MEFs; experiment: Proliferation of E1A/Ras-transformed MEFs (BrdUrd incorporation); format: cell-based; conditions: 48 hours
Method: E1A/Ras-transformed WT or 4e-bp1/4e-bp2 DKO MEFs were treated with either Torin1 or Compound 38 at indicated concentrations and cell proliferation was measured 48 hours later with the aid of BrdUrd incorporation. Values were normalized to DMSO-treated triplicates. Error bars, SD (n=3).

[7] = Blood chemistry following Compound 38 IP administration; format: in vivo; conditions: Compound 38 1 mg/kg IP, individual mice #4-#6
Excerpt: The growth of A375 tumors in immunodeficient mice subjected to either BRAFi alone or BRAFi combined with Compound 38 was monitored in vivo. Compound 38 toxicity in mice was monitored by liver function (Table 5).

[8] = molecular target: T1, eIF4F complex (Mus musculus, UniProt Q6NZJ6); experiment: m7GTP pull-down assay, WT or 4E-BP DKO MEFs; format: cell-based; conditions: 6 hours, Torin1 250 nmol/L
T1 construct: endogenous in cells; host or cells: WT and 4E-BP1/2 double-knock-out MEFs
T1 sequence (Q6NZJ6 whole entry, one chain of several): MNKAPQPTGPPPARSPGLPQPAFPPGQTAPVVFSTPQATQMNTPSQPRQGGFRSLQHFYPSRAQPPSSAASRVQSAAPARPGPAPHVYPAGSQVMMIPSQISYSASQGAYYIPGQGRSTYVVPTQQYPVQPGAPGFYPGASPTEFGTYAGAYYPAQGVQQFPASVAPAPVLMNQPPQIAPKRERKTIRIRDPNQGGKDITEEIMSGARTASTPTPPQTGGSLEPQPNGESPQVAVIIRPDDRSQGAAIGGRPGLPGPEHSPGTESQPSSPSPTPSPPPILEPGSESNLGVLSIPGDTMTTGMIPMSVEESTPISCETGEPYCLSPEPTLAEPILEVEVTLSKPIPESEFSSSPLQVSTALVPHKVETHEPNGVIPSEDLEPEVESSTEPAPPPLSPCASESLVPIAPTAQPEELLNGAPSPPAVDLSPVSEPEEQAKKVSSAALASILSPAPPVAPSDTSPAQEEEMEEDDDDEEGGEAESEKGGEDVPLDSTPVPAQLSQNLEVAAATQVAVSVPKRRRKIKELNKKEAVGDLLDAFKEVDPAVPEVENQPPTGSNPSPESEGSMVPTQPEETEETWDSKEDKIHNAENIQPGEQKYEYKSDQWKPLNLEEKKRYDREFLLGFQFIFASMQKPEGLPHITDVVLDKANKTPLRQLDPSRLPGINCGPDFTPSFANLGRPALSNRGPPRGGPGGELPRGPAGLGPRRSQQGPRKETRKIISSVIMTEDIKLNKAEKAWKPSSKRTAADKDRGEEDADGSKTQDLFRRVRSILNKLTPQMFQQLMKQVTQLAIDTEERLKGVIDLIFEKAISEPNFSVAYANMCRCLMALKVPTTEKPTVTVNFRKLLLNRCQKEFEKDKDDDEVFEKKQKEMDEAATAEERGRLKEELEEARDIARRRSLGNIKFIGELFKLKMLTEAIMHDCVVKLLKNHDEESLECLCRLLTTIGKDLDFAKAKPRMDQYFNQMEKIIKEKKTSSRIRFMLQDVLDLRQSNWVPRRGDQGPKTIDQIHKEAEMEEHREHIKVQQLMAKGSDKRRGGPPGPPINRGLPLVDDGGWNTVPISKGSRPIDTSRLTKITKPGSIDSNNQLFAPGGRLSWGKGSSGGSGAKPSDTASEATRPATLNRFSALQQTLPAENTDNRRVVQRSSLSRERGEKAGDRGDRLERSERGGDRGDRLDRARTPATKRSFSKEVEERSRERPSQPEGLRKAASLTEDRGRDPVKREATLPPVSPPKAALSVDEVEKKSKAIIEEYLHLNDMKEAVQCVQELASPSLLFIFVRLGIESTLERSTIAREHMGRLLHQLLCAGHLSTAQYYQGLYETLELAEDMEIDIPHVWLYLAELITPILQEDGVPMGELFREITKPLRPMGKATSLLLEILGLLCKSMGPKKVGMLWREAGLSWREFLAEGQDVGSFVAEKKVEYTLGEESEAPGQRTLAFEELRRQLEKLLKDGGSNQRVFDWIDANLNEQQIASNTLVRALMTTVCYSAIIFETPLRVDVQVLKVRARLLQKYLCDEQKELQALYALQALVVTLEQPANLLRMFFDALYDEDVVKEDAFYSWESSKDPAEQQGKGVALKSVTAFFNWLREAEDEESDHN
Method: As previously described (Dowling R J, et al. mTORC1-mediated cell proliferation, but not cell growth, controlled by the 4E-BPs. Science. 2010; 328:1172-6), cells growing in 100 mm plates were washed (cold PBS), collected, and lysed in 50 mM MOPS/KOH (7.4), 100 mM NaCl, 50 mM NaF, 2 mM EDTA, 2 mM EGTA, 1% NP40, 1% Na-DOC, 7 mM β-mercaptoethanol, protease inhibitors and phosphatase inhibitor cocktail (Roche). Lysates were incubated with m7-GDP-agarose beads (Jena Bioscience) for 20 minutes, washed 4 times with the washing buffer containing 50 mM MOPS/KOH (7.4), 100 mM NaCl, 50 mM NaF, 0.5 mM EDTA, 0.5 mM EGTA, 7 mM (3-mercaptoethanol, 0.5 mM PMSF, 1 mM Na3VO4 and 0.1 mM GTP, and bound proteins were eluted by boiling the beads in loading buffer. m7-GDP-agarose pulled down material was analyzed by Western blot analysis.
Indicated cultures (WT or DKO 4E-BP) were treated with Torin1 (250 nmol/L) or indicated Compound 38 concentrations for 6 hours. Western blots show respective protein levels in total cell lysates or following pull-down using m^7GTP agarose beads. […] P3-Actin served as a loading control and to exclude contamination in m^7GTP pull-down.

[9] = system: Nras^Q61K/Ink4a^−/− melanoma tumors; experiment: Inducible Nras^Q61K/Ink4a^−/− genetic melanoma model; format: in vivo, mice; conditions: 0.5 mg/kg intraperitoneal twice a week from week 11; compared with control nontreated group
Method: In vivo, Compound 38 was evaluated using an inducible Nras^Q61K/Ink4a^−/− genetic model in which melanoma tumors emerge within 16 to 20 weeks (FIG. 20). Administration of Compound 38 only, starting 11 weeks after genetic inactivation of Ink4a and induction of […] (about 10-14 days prior to tumor appearance), delayed tumor onset (from 20-26 weeks), and reduced tumor incidence, by 50%, compared with the control nontreated group. Mice of the Nras^Q61K:Ink4a^−/− genotype or WT mice (38-40 mice for each genotype) were administered vehicle or Compound 38 at 0.5 mg/kg by intraperitoneal injection twice a week starting at week 11 after Nras^Q61K activation and Ink4a inactivation. Tumor development was monitored twice per week. Latency and frequency of melanoma development over the 21-week treatment period (weeks 11-32) are shown.

O=C(/C=C/c1cncc(F)c1)c1c(-c2ccccc2)c2cc(Cl)ccc2[nH]c1=O [Compound 38, 6-Chloro-3-[3-(5-fluoro-pyridin-3-yl)-acryloyl]-4-phenyl-1H-quinolin-2-one]
IC50 [1]: 2 to 10 µM
Hepatic Microsome Stability (% remaining at 1 Hr) Mouse [2]: 38.69 % remaining
Hepatic Microsome Stability (% remaining at 1 Hr) Mouse (no NADPH) ([2]; no NADPH): 53.97 % remaining
Papp ([3]; Donor pH 5.0, Acceptor pH 7.4, read-out: PAMPA Permeability, Pe, Donor pH 5.0): 1110 ×10⁻⁶ cm/s
Papp ([3]; Donor pH 6.2, Acceptor pH 7.4, read-out: PAMPA Permeability, Pe, Donor pH 6.2): 1150 ×10⁻⁶ cm/s
Papp ([3]; pH 7.4, Donor pH 7.4, Acceptor pH 7.4, read-out: PAMPA Permeability, Pe, Donor pH 7.4): 820 ×10⁻⁶ cm/s
solubility [4]: 5.6 µg/mL (≈ 13.8 µM)
IC50 [5]: 2 to 10 µM
proliferation of E1A/RAS-transformed 4E-BP DKO MEFs [6]: attenuated the proliferation
CRE (Kidney) [7]: <18 µmol/L
ALB (Liver) ([7]; 1 mg/kg): 32 g/L (2×) and 34 g/L
ALP (Liver) ([7]; 1 mg/kg): 88 μ/L and 54 μ/L and 24 μ/L
ALT (Liver) ([7]; 1 mg/kg): 126 μ/L and >1000 μ/L and 152 μ/L
AMY (Pancreas) ([7]; 1 mg/kg): 701 μ/L and 811 μ/L and 1625 μ/L
BUN (Kidney) ([7]; 1 mg/kg): 7.5 mmol/L and 9.9 mmol/L and 7.9 mmol/L
CA (Electrolytes) ([7]; 1 mg/kg): 2.25 mmol/L and 2.1 mmol/L and 2.14 mmol/L
GLOB (Liver) ([7]; 1 mg/kg): 10 g/L and 11 g/L (2×)
GLU (General metabolism) ([7]; 1 mg/kg): 17.6 mmol/L and 13.8 mmol/L and 16.5 mmol/L
K^+ (Electrolytes) ([7]; 1 mg/kg): 5.5 mmol/L and 8 mmol/L and 6.5 mmol/L
Na^+ (Electrolytes) ([7]; 1 mg/kg): 137 mmol/L (2×) and 146 mmol/L
PHOS (Electrolytes) ([7]; 1 mg/kg): 2.4 mmol/L and 2.27 mmol/L and 1.64 mmol/L
TBIL (Liver) ([7]; 1 mg/kg): 5 μmol/L and 4 μmol/L (2×)
TP (Liver) ([7]; 1 mg/kg): 42 g/L and 44 g/L and 43 g/L
eIF4G1:eIF4E association (m7GTP pull-down) [8]: reduced eIF4G1:eIF4E association in both WT and 4E-BP DKO MEFs
reduced tumor incidence [9]: 50%
tumor onset, delayed (from - to) [9]: 20-26 weeks
